According to the RepoRT retention time repository:

test: Waters ACQUITY UPLC HSS T3, 0.4 mL/min; A: water + 0.1% formic acid; B: acetonitrile + 0.1% formic acid; gradient (min/%B) 0/5 1.5/5 12/95 14/95 14.01/100 17/100; conditions: stereoisomer not certain

Structure (SMILES) | LC retention time [min]
CCCCCC=CCC=CCC=CCCCCC(=O)OC(COC(=O)CCCCCCCCCCCCCCC)COP(=O)(O)OCC(O)CO (centres undefined) | 13.9
CCCCCC=CCC=CCCCCCCCC(=O)OCC(COP(=O)(O)OCC(O)CO)OC(=O)CCCCCCCC=CCCCCCC (centres undefined) | 13.9
O=c1[nH]cnc2[nH]ncc12 | 1.1
CCCCCCCCCCCCCCCCCCOC(=O)C(O)(CC(=O)O)CC(=O)O | 10.5
CCCCCCCCCCCCCCCCCCC(=O)OCC(O)COP(=O)(O)OCC(N)C(=O)O (centres undefined) | 5.17
CCCCCCC=CC=CCCCCCCCC(=O)OC(COC(=O)CCCCCCCCC(C)C)COP(=O)(O)OCC(O)CO (centres undefined) | 12.1
CC(=O)NC(CO)C(=O)O (centres undefined) | 0.786
NCCCCC(=O)O | 1.02
CC(=O)OCCC(N)C(=O)O (centres undefined) | 0.912
CC(C)CC(N)C(=O)NC(CCC(=O)O)C(=O)O (centres undefined) | 1.05
CCC=CCC=CCC=CCCCCCCCC(=O)OC(COC(=O)CCCCCCCCCCCCCCC)COP(=O)(O)OCC(O)CO (centres undefined) | 13.9
CCC=CCC=CCC=CCC=CCC=CCC=CCCC(=O)OC(CO)COP(=O)(O)OCCN (centres undefined) | 4.65
CSCCC(N)C(=O)O (centres undefined) | 1.04
NCCCCCCCCCCCC(=O)O | 6.54
CNC(CCC(=O)O)C(=O)O (centres undefined) | 0.912
CCC=CCC(O)C(O)C=CC=CC=CC=CC(O)CC=CCCC(=O)O (centres undefined) | 5.01
NCCC(=O)O | 0.806
CC(N)C(=O)O (centres undefined) | 0.806
CNCC(=O)O | 0.806
C=C1C(=O)OC2C1CC=C1CC(C)(CCC1OO)C2O (centres undefined) | 6.31

Structure (SMILES) | LC retention time [min]
CC(=CC(=O)OC1OC(CO)C(O)C(O)C1O)CCC=C(C)CCC(O)C(C)(C)O (centres undefined) | 9.03
CCCCCCCCCCCCCCCCCC(=O)OCC(O)COP(=O)(O)OCC(O)CO (centres undefined) | 5.64
CCCCCON=O | 1.02
C[N+](C)(C)CCOP(=O)([O-])OCC(O)CO (centres undefined) | 0.761
CC(C)CC(N)C(=O)O (centres undefined) | 1.31
CCCCN(CCCN(CCCN(CCCN)CCCN)CCCN(CCCN)CCCN)CCCN(CCCN(CCCN)CCCN)CCCN(CCCN)CCCN | 0.706
C=C(CCC)C(N)C(=O)O (centres undefined) | 0.818
CCCCCCC=CCCCCCCCC(=O)OC(CO)COP(=O)(O)OCCN (centres undefined) | 4.91
C[N+](C)(C)CC(O)CC(=O)[O-] (centres undefined) | 0.75
CN1C2CCC1(O)C(O)C(O)C2O (centres undefined) | 1.05
O=C(O)CCCSCCCCSCCCC(=O)O | 0.766
C[N+](C)(C)CCO | 0.706
CC(=O)OCC[N+](C)(C)C | 0.772
CNC(CC(=O)O)C(=O)O (centres undefined) | 0.786
CC(=O)NC(CC(C)C)C(=O)NC(CC(C)C)C(=O)NC(C=O)CCCN=C(N)N (centres undefined) | 12.2
CCCCC(CC)CS (centres undefined) | 0.766
CCCCCCCCCCCCCCCC(=O)OC1C(C)OC(OC2C(OCCCC)OC(CO)C(O)C2O)C(O)C1O (centres undefined) | 10.4
OCCOCCOCCOCCOCCOCCOCCO | 3.99
CCCCCCCCCCCCCCCC(=O)OCC(COP(=O)([O-])OCC[N+](C)(C)C)OC(=O)CCCC(O)C=CC=O (centres undefined) | 5.43
OC1CC2CC(O)C(C1)N2 (centres undefined) | 0.818

Structure (SMILES) | LC retention time [min]
CCCCCC(N)C(=O)O (centres undefined) | 0.772
CSCCC(N)C(=O)NC(CCCN=C(N)N)C(=O)O (centres undefined) | 3.75
CCCCCCCCC=CCCCCCCCC(=O)OC(CC(=O)[O-])C[N+](C)(C)C (centres undefined) | 9.56
CC(=O)C1CCC2C3CCC4CC(=O)CCC4(C)C3CCC12C (centres undefined) | 11.8
CCCCCC(=O)CCOC1OC(CO)C(O)C(O)C1O (centres undefined) | 4.89
CC(C)SC(C)C | 1.02
CC(=O)OCC(N)C(=O)O (centres undefined) | 0.786
CCC=CCC=CCC=CCC=CCC=CCC=CCCC(=O)OCC(O)COP(=O)(O)OCCN (centres undefined) | 4.65
C=CCC=CCC=CCCCCCCCC(C(=O)OC)C(=O)C(=CC(=O)OC)OC (centres undefined) | 5.18
CCCCCCC=CCCCCCCCC(=O)OCC(O)COP(=O)(O)OCCN (centres undefined) | 4.91
CCC(C)C(N)C(=O)O (centres undefined) | 1.31
CC=CC=CC=CC1=NCCCC1 | 9.09
C[N+](C)(C)CCCC(=O)[O-] | 0.772
CCCC(=O)OC(CC(=O)[O-])C[N+](C)(C)C (centres undefined) | 3
CCCCCCC=CCCCCCCCCCC(=O)OC(CCC(=O)[O-])[N+](C)(C)C (centres undefined) | 9.56
NC(CCC(=O)O)C(=O)O (centres undefined) | 0.786
CCCC(N)C(=O)O (centres undefined) | 1.02
CCCCCCCCCCCCCCCCCCCCCCCCC(=O)NCC(=O)O | 9.77
CCCCCC=CCC=CCCCCCCCC(=O)OC(COC(=O)CCCCCCCC=CCCCCCC)COP(=O)(O)OCC(O)CO (centres undefined) | 13.9
CCCCCC(O)C=CC1=CCC(=O)C1CC=CCCCC(=O)O (centres undefined) | 4.99

Further lines, results first:

LC retention time [min] | Structure (SMILES)
3.99 | CC1(C)C2C(O)CC(C)(C2O)C1OC1OC(CO)C(O)C(O)C1O (centres undefined)
9.86 | CC1CCC2(NC1)OC1CC3C4CC=C5CC(OC6OC(CO)C(OC7OC(C)C(O)C(O)C7O)C(O)C6O)CCC5(C)C4CCC3(C)C1C2C (centres undefined)
4.44 | CC1=CC(O)CC(C)(C)C1(O)C=CC(C)OC1OC(COC2OCC(O)(CO)C2O)C(O)C(O)C1O (centres undefined)
3.99 | CC1(C)OC2(CO)CCC1CC2OC1OC(CO)C(O)C(O)C1O (centres undefined)
8.51 | CCCCCC(O)C=CC1OC(O)CC(O)C1CC=CCC(=O)O (centres undefined)
0.842 | COc1ccc(COC2OC(CO)C(O)C(O)C2OS(=O)(=O)O)cc1 (centres undefined)
11 | CC1=CC(c2c(O)c(C(=O)CCc3ccccc3)c(O)c(C3C=C(C)CCC3C(C)C)c2O)C(C(C)C)CC1 (centres undefined)
3.99 | CC1(OC2OC(CO)C(O)C(O)C2O)CC(O)C2(C(C)(C)O)CC12 (centres undefined)
5.53 | CCC(=O)C1CC(C)C2(CC(=O)C3(C)C4=C(CCC32C)C2(C)C=CC(=O)C(C)(CO)C2CC4)O1 (centres undefined)
11 | CC1CCC2(C(=O)O)CCC3(C)C(=CC(=O)C4C5(C)CCC(OC(=O)c6ccccc6)C(C)(C)C5CCC43C)C2C1C (centres undefined)
4.78 | C=Cc1c2[nH]c(c1C)Cc1[nH]c(c(CCC(=O)O)c1C)Cc1[nH]c(c(C)c1CCC(=O)O)Cc1[nH]c(c(C)c1C=C)C2
9.82 | CC(C)=CCCC(C)(OC1OC(CO)C(O)C(O)C1O)C1CCC2(C)C1C(O)CC1C3(C)CCC(OC4OC(CO)C(O)C(O)C4O)C(C)(C)C3CCC12C (centres undefined)
3.99 | C=CC1(CO)CCC(C(C)(C)OC2OC(CO)C(O)C(O)C2O)O1 (centres undefined)
11.8 | CC(=O)C1CCC2C3CC=C4CC(O)CCC4(C)C3CCC12C (centres undefined)
3.99 | C=C(CO)C1CCC(C)(O)C(OC2OC(CO)C(O)C(O)C2O)C1 (centres undefined)
10.9 | CC1(COC(=O)c2ccccc2)CCC2(C)CCC3(C)C4=CCC5C(C)(CCC(OC(=O)c6ccc(N)cc6)C5(C)C)C4=CCC3(C)C2C1 (centres undefined)
0.934 | Nc1ncnc2c1ncn2C1OC(COP(=O)(O)O)C(O)C1O (centres undefined)
10.6 | Cc1cc(O)cc(O)c1C(=O)OC1CC2(C)C3CC(C)(C)CC3C=C(C=O)C12 (centres undefined)
0.934 | Nc1nc2c(ncn2C2CC(O)C(COP(=O)(O)O)O2)c(=O)[nH]1 (centres undefined)
0.934 | Nc1[nH]c(=O)nc2c1ncn2C1CC(O)C(COP(=O)(O)O)O1 (centres undefined)
3.99 | CC1(C)OC2(C)C(O)CC1CC2OC1OC(CO)C(O)C(O)C1O (centres undefined)
3.99 | CC(C)=CC1c2[nH]c3ccccc3c2CC2C(=O)N3CCCC3C(=O)N21 (centres undefined)

LC retention time [min] | Structure (SMILES)
9.86 | CC1CCC2C(C)C3C(CC4C5CC=C6CC(OC7OC(CO)C(O)C(OC8OC(CO)C(O)C(O)C8O)C7O)CCC6(C)C5CCC43C)N2C1 (centres undefined)
4.44 | CC1=CC(=O)CC(C)(C)C1(O)CCC(C)OC1OC(COC2OCC(O)(CO)C2O)C(O)C(O)C1O (centres undefined)
3.99 | CC12CCC(O)(CC1OC1OC(CO)C(O)C(O)C1O)C(C)(C)O2 (centres undefined)
9.82 | CCC1OC(=O)C(C)C(OC2CC(C)(O)C(O)C(C)O2)C(C)C(O)C(C)(O)CC(C)C(=O)C(C)C(O)C1C (centres undefined)
1.05 | CC1OC(CC(=O)O)Cc2c1c(O)c1c(O)c(-c3cc(=O)c4c(=O)c5c(c(=O)c=4c3=O)C(C)OC(CC(=O)O)C5)cc(O)c1c2O (centres undefined)
9.85 | CCCCCC1OC(=O)C(C(C)CC)N(C)C(=O)C2CCCN2C(=O)C(C(C)C)OC(=O)C(Cc2ccccc2)N(C)C(=O)C(C(C)C)NC(=O)C1C (centres undefined)
4.52 | CC(CCc1ccccc1)NCC(O)c1ccc(O)c(C(N)=O)c1 (centres undefined)
10.4 | CC(=O)C1OC1(O)C(C)=CC=CC(C)=CC=CC=C(C)C=CC=C(C)C=CC1=C(C)CCCC1(C)C (centres undefined)
10.6 | CC1=CC(=O)C2(C(C)C)C(=O)C3=C(C(O)C4OC(=O)C35CCCC(C)(C)C45)C12 (centres undefined)
4.98 | Cc1c(C)c(C(=O)C(C)O)n2c1CCC2 (centres undefined)
0.839 | CC(=O)OC(CC(=O)[O-])C[N+](C)(C)C (centres undefined)
5.47 | CCC(C)C(C(=O)NC(C(=O)NC1C(=O)NC(Cc2c[nH]c3ccccc23)C(=O)NCC(=O)c2ccc(cc2)OC1(C)C)C(C)C)N(C)C (centres undefined)
4.43 | CC(CCC(=O)NCCS(=O)(=O)O)C1CCC2C3C(O)C(O)C4CC(O)CCC4(C)C3CCC12C (centres undefined)
5.17 | COC(=O)C1(OC(C)=O)CC23CCC4C(C)(O)CCCC4(C)C2CCC1C3 (centres undefined)
6.31 | CC1(C)C(O)CC(O)C23C(=O)OC4OCC(=CCC12)C43 (centres undefined)
1.05 | Oc1cc(O)c2c(c1)OC(c1cc(O)c(O)c(O)c1)C(O)C2 (centres undefined)
4.99 | CC(C)C1=CC2(O)CCC3C(C)(C(=O)O)CCCC3(C)C2CC1=O (centres undefined)
4.43 | CC(CCC(=O)NCCS(=O)(=O)O)C1CCC2C3C(O)CC4CC(O)CCC4(C)C3CC(O)C12C (centres undefined)
6.31 | CC1C(=O)OC2C3=C(C(=O)CC3(C)O)C(C)(O)CCC12 (centres undefined)
8.61 | C=C(C)C1CCC(C)(O)C1CC1=C(O)C(=C(O)c2ccccc2)C(=O)C(CC=C(C)C)(CC=C(C)C)C1=O (centres undefined)
0.934 | Nc1ncnc2c1ncn2C1OC(CO)C(O)C1OP(=O)(O)O (centres undefined)
6.31 | C=C1CCC2C(OC(=O)C2(O)CO)C2C(C)C(=O)CC12 (centres undefined)
